Assay results from the supplement of paper PMC10307832.

Tests used:
Assay in all cases: relative viability (nuclei count vs DMSO), 5 days (fraction); higher = more cells survive
[1] = test system: ABC-1
Outline: (§1)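 Lung cancer cell lines were seeded in 1536-well plates and dosed by pin tool the next day, with either a single drug or a fixed anchor-drug dose combined with five library-drug doses (not always all listed) spaced in √10 steps. Five days later, one step fixed the cells and stained their nuclei (final 0.05% Triton X-100, 1% formaldehyde, 1 ug/ml Hoechst), and nuclei were counted on 4× images. Relative viability is the nuclei count in treated wells divided by the count in vehicle wells, and each value is the median of duplicate plates.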

[2] = test system: 201T
Outline: as §1

[3] = test system: NCI-H1437
Outline: as §1

[4] = test system: CAL-12T
Outline: as §1

[5] = test system: SW 900
Outline: as §1

[6] = test system: NCI-H727
Outline: as §1

[7] = test system: NCI-H460
Outline: as §1

[8] = test system: NCI-H1650
Outline: as §1

[9] = test system: NCI-H2170
Outline: as §1

[10] = test system: HARA
Outline: as §1

[11] = test system: NCI-H2009
Outline: as §1

[12] = test system: NCI-H3122
Outline: as §1

[13] = test system: NCI-H1666
Outline: as §1

[14] = test system: EKVX
Outline: as §1

[15] = test system: HCC-366
Outline: as §1

[16] = test system: COR-L 105
Outline: as §1

[17] = test system: LK-2
Outline: as §1

[18] = test system: BEN
Outline: as §1

[19] = test system: LOU-NH91
Outline: as §1

[20] = test system: NCI-H441
Outline: as §1

[21] = test system: PC-14
Outline: as §1

[22] = test system: NCI-H661
Outline: as §1

O=c1cc(-c2cccc3c2Sc2ccccc2S3)oc(N2CCOCC2)c1 + COc1cc2c(Oc3ccc(NC(=O)C4(C(=O)Nc5ccc(F)cc5)CC4)cc3F)ccnc2cc1OCCCN1CCOCC1 [Foretinib] (partner 0.25 µM)
relative viability ([1]; first compound 0.08 µM): 1.25 | relative viability ([1]; first compound 0.253 µM): 1.17 | relative viability ([1]; first compound 0.8 µM): 1.2 | relative viability ([1]; first compound 2.53 µM): 1.04 | relative viability ([1]; first compound 8 µM): 1.31 | relative viability ([2]; first compound 0.08 µM): 1.14 | relative viability ([2]; first compound 0.253 µM): 1.08 | relative viability ([2]; first compound 0.8 µM): 0.787 | relative viability ([2]; first compound 2.53 µM): 1.06 | relative viability ([2]; first compound 8 µM): 1.01 | relative viability ([3]; first compound 0.08 µM): 1.27 | relative viability ([3]; first compound 0.253 µM): 1.41 | relative viability ([3]; first compound 0.8 µM): 1.32 | relative viability ([3]; first compound 2.53 µM): 1.23 | relative viability ([3]; first compound 8 µM): 1.33 | relative viability ([4]; first compound 0.08 µM): 0.951 | relative viability ([4]; first compound 0.253 µM): 1.15 | relative viability ([4]; first compound 0.8 µM): 1.19 | relative viability ([4]; first compound 2.53 µM): 1.14 | relative viability ([4]; first compound 8 µM): 1 | relative viability ([5]; first compound 0.08 µM): 0.772 | relative viability ([5]; first compound 0.253 µM): 1.27 | relative viability ([5]; first compound 0.8 µM): 1.05 | relative viability ([5]; first compound 2.53 µM): 0.723 | relative viability ([5]; first compound 8 µM): 0.648 | relative viability ([6]; first compound 0.08 µM): 0.552 | relative viability ([6]; first compound 0.253 µM): 0.867 | relative viability ([6]; first compound 0.8 µM): 0.904 | relative viability ([6]; first compound 2.53 µM): 0.842 | relative viability ([6]; first compound 8 µM): 1.21 | relative viability ([7]; first compound 0.08 µM): 1.04 | relative viability ([7]; first compound 0.253 µM): 1.01 | relative viability ([7]; first compound 0.8 µM): 0.963 | relative viability ([7]; first compound 2.53 µM): 1.02 | relative viability ([7]; first compound 8 µM): 1.13 | relative viability ([8]; first compound 0.08 µM): 1.35 | relative viability ([8]; first compound 0.253 µM): 1.04 | relative viability ([8]; first compound 0.8 µM): 0.998 | relative viability ([8]; first compound 2.53 µM): 0.902 | relative viability ([8]; first compound 8 µM): 1.19 | relative viability ([9]; first compound 0.08 µM): 1.03 | relative viability ([9]; first compound 0.253 µM): 1.05 | relative viability ([9]; first compound 0.8 µM): 1.08 | relative viability ([9]; first compound 2.53 µM): 0.999 | relative viability ([9]; first compound 8 µM): 0.983 | relative viability ([10]; first compound 0.08 µM): 0.934 | relative viability ([10]; first compound 0.253 µM): 0.956 | relative viability ([10]; first compound 0.8 µM): 0.961 | relative viability ([10]; first compound 2.53 µM): 0.898 | relative viability ([10]; first compound 8 µM): 0.777 | relative viability ([11]; first compound 0.08 µM): 1.23 | relative viability ([11]; first compound 0.253 µM): 1.21 | relative viability ([11]; first compound 0.8 µM): 1.15 | relative viability ([11]; first compound 2.53 µM): 1.12 | relative viability ([11]; first compound 8 µM): 1.19 | relative viability ([12]; first compound 0.08 µM): 0.789 | relative viability ([12]; first compound 0.253 µM): 1.01 | relative viability ([12]; first compound 0.8 µM): 1.02 | relative viability ([12]; first compound 2.53 µM): 0.986 | relative viability ([12]; first compound 8 µM): 1.01 | relative viability ([13]; first compound 0.08 µM): 1 | relative viability ([13]; first compound 0.253 µM): 1.07 | relative viability ([13]; first compound 0.8 µM): 1.13 | relative viability ([13]; first compound 2.53 µM): 0.971 | relative viability ([13]; first compound 8 µM): 0.908 | relative viability ([14]; first compound 0.08 µM): 0.785 | relative viability ([14]; first compound 0.253 µM): 0.892 | relative viability ([14]; first compound 0.8 µM): 0.751 | relative viability ([14]; first compound 2.53 µM): 0.734 | relative viability ([14]; first compound 8 µM): 1.33 | relative viability ([15]; first compound 0.08 µM): 0.911 | relative viability ([15]; first compound 0.253 µM): 0.89 | relative viability ([15]; first compound 0.8 µM): 0.635 | relative viability ([15]; first compound 2.53 µM): 0.903 | relative viability ([15]; first compound 8 µM): 1.03 | relative viability ([16]; first compound 0.08 µM): 1.31 | relative viability ([16]; first compound 0.253 µM): 0.854 | relative viability ([16]; first compound 0.8 µM): 0.8 | relative viability ([16]; first compound 2.53 µM): 1.08 | relative viability ([16]; first compound 8 µM): 1.38 | relative viability ([17]; first compound 0.08 µM): 0.933 | relative viability ([17]; first compound 0.253 µM): 1.24 | relative viability ([17]; first compound 0.8 µM): 1.23 | relative viability ([17]; first compound 2.53 µM): 0.997 | relative viability ([17]; first compound 8 µM): 1.25 | relative viability ([18]; first compound 0.08 µM): 0.485 | relative viability ([18]; first compound 0.253 µM): 0.662 | relative viability ([18]; first compound 0.8 µM): 0.674 | relative viability ([18]; first compound 2.53 µM): 0.578 | relative viability ([18]; first compound 8 µM): 0.97 | relative viability ([19]; first compound 0.08 µM): 0.976 | relative viability ([19]; first compound 0.253 µM): 0.906 | relative viability ([19]; first compound 0.8 µM): 0.833 | relative viability ([19]; first compound 2.53 µM): 0.838 | relative viability ([19]; first compound 8 µM): 0.967 | relative viability ([20]; first compound 0.08 µM): 0.512 | relative viability ([20]; first compound 0.253 µM): 1.09 | relative viability ([20]; first compound 0.8 µM): 1.35 | relative viability ([20]; first compound 2.53 µM): 0.882 | relative viability ([20]; first compound 8 µM): 0.98 | relative viability ([21]; first compound 0.08 µM): 0.95 | relative viability ([21]; first compound 0.253 µM): 1.29 | relative viability ([21]; first compound 0.8 µM): 0.924 | relative viability ([21]; first compound 2.53 µM): 0.961 | relative viability ([21]; first compound 8 µM): 0.966 | relative viability ([22]; first compound 0.08 µM): 1.02 | relative viability ([22]; first compound 0.253 µM): 1.02 | relative viability ([22]; first compound 0.8 µM): 0.92 | relative viability ([22]; first compound 2.53 µM): 0.952 | relative viability ([22]; first compound 8 µM): 1
